# Experimental data taken from ChEMBL document CHEMBL3352488, “1,3-Dimethyl Benzimidazolones Are Potent, Selective Inhibitors of the BRPF1 Bromodomain” (ACS Med Chem Lett, 2014).
# Activity calls are given as the source filed them. The rule behind the calls is not given here.
# Tests used:
# [1] = target: Bromodomain-containing protein 4 (Homo sapiens, UniProt O60885, Y390A); test: Binding affinity to 6His-tagged-BRD4 BD1 Y390A mutant (1 to 477 aa) (unknown origin) by TR-FRET competitive assay
# [2] = Aqueous solubility of the compound in DMSO/phosphate buffered saline at pH7.4 by chemiluminescent nitrogen detection method; format: physicochemical; details: pH 7.4
# [3] = Permeability of the compound across artificial lipid membrane; format: ADME; details: not told; read-out: permeability
# [4] = target: Bromodomain-containing protein 4 (Homo sapiens) (UniProt O60885); test: Binding affinity to His-tagged-BRD4 BD1 (1 to 477 aa) (unknown origin) by STD-NMR analysis
# [5] = target: Bromodomain-containing protein 4 (Homo sapiens) (UniProt O60885); test: Binding affinity to His-tagged-BRD4 BD1 (1 to 477 aa) (unknown origin) by STD-NMR analysis in presence of GW841819
SMILES,IC50 [1] [µM],also measured
Cc1ccc(S(=O)(=O)Nc2ccc3c(c2)n(C)c(=O)n3C)c(C)c1,2.51,–
COc1ccccc1C(=O)Nc1cc2c(cc1N1CCCCC1)n(C)c(=O)n2C,–,solubility kinetic [2]: 25 µM; Papp [3]: 35 ×10⁻⁶ cm/s
Cn1c(=O)n(C)c2cc(C(N)=O)ccc21,79.4,Activity [4]: Active; Activity [5]: inactive

# Continued, in another order:
IC50 [1] [µM],SMILES,also measured
> 50.1,COc1ccccc1C(=O)Nc1ccc2c(c1)n(C)c(=O)n2C,–
15.8,COc1cccc(C(=O)Nc2ccc3c(c2)n(C)c(=O)n3C)c1,–
> 50.1,COc1cccc(C(=O)Nc2cc3c(cc2C)n(C)c(=O)n3C)c1,–
